Source: patent US9156801B2, “2-substituted oleanolic acid derivative, method preparing for same, and application thereof” (HANGZHOU BENSHENG PHARMACEUTICAL CO., LTD., priority 2011, dated 2015)
Converted amounts (≈) assume the structure as drawn.

Key:
Hep G2 cell line = experiment: solid tumor cell growth inhibition, MTT; type: cell-based, human; conditions: Homo sapiens; for inhibition at 16 µg/mL: HepG2, 72 h, Hep G2, 16 μg/mL compound, 72 h, read-out: IR (cell proliferation inhibition rate); for IC50: HepG2, Hep G2, 72 h
Procedure: (§1) Hep-2 (laryngeal carcinoma), A549 (human lung cancer), CaES-17 (esophageal cancer cell), PC-3 (prostate cancer), CNE (nasopharyngeal carcinoma cell), and SK-OV-3 (ovarian cancer cell), all of which are purchased from China Center For Type Culture Collection; RKO (human colon adenocarcinoma cell), MGC 803 (human gastric cancer cell), MG63 (osteosarcoma) and U87 MG (malignant glioma cell), all of which are purchased from Fuxiang Bio-tech Co. Ltd., Shanghai, China; PANC-1 (pancreatic cancer), Hep G2 (human liver cancer cell), Becap37 (human breast cancer cell), and Hela (human cervical cancer cell), all of which are donated by Cancer Research Institute of Zhejiang University, China.
(§2) Obtaining 4000 well-growing human solid tumor cells and inoculating them into wells of a 96-well cell culture plate. The culture medium is DMEM High Glucose cell culture medium containing 10% fetal bovine serum. The plate is placed in a carbon dioxide cell incubator (5% CO2) at 37° C. for 24 hours. After adding the 2-substituted oleanolic acid derivatives of different concentrations and mixing uniformly, the plate is placed in a carbon dioxide cell incubator (5% CO2) at 37° C. and incubated for 72 hours. Then the relative number of the living cells is determined by MTT method. In this experiment, the cell proliferation inhibition rate in control group (not treated with any compound) is set as 0%.

RPMI8226 cell line = experiment: multiple myeloma cell growth inhibition, MTT; type: cell-based; conditions: Homo sapiens, RPMI-8226; for inhibition at 16 µg/mL: RPMI8226, 16 μg/mL compound, 72 h, read-out: IR (cell proliferation inhibition rate); for IC50: RPMI8226, 72 h
Procedure: Multiple myeloma cell lines: RPMI8226 (multiple myeloma), purchased from Fuxiang Bio-tech Co. Ltd., Shanghai, China.
(§3) Obtaining 6000 well-growing cells as above and inoculating them into wells of a 96-well cell culture plate. The culture medium is the 1640 cell culture medium containing 10% fetal bovine serum. After adding the 2-substituted oleanolic acid derivatives of different concentrations and mixing uniformly, placing the plate in a carbon dioxide cell incubator (5% CO2) at 37° C. and incubated for 72 hours. Then the relative number of viable cells is determined by MTT method. In this experiment, cell proliferation inhibition rate in control group (not treated with any compound) is set as 0%.

K562/adr cell line = experiment: leukemia cell growth inhibition, MTT; type: cell-based; conditions: Homo sapiens, 72 h; for IC50: K562/Adr; for inhibition at 16 µg/mL: K562/adr, 16 μg/mL compound, read-out: IR (cell proliferation inhibition rate)
Source text: (§4) Leukemia cell lines: leukemia cell lines: K562/adr (drug-resistant, chronic myeloid leukemia, CML), NB4 (acute promyelocytic leukemia, AML), Kasumi-1 (acute myeloid leukemia M2 type, AML-M2), Jurkat (acute lymphoblastic leukemia, ALL), all of which are donated by Cancer Research Institute of Zhejiang University, China; and H9 (acute lymphoblastic leukemia, ALL), which is purchased from China Center for Type Culture Collection (CCTCC).
as §3, with “well-growing leukemia” for “well-growing”, “cells” for “cells as above”

Kasumi-1 cell line = experiment: leukemia cell growth inhibition, MTT; type: cell-based; conditions: Homo sapiens; for inhibition at 16 µg/mL: Kasumi-1, 16 μg/mL compound, 72 h, read-out: IR (cell proliferation inhibition rate); for IC50: Kasumi-1, 72 h
Source text: as §4
as §3, with “well-growing leukemia” for “well-growing”, “cells” for “cells as above”

NB4 cell line = experiment: leukemia cell growth inhibition, MTT; type: cell-based; conditions: Homo sapiens, NB-4; for inhibition at 16 µg/mL: NB4, 16 μg/mL compound, 72 h, read-out: IR (cell proliferation inhibition rate); for IC50: NB4, 72 h
Source text: as §4
as §3, with “well-growing leukemia” for “well-growing”, “cells” for “cells as above”

H9 cell line = experiment: leukemia cell growth inhibition, MTT; type: cell-based; conditions: Homo sapiens; for IC50: H9, 72 h; for inhibition at 16 µg/mL: H9, 16 μg/mL compound, 72 h, read-out: IR (cell proliferation inhibition rate)
Source text: as §4
as §3, with “well-growing leukemia” for “well-growing”, “cells” for “cells as above”

Jurkat cell line = experiment: leukemia cell growth inhibition, MTT; type: cell-based; conditions: Homo sapiens, 72 h; for inhibition at 16 µg/mL: 16 μg/mL compound, read-out: IR (cell proliferation inhibition rate)
Source text: as §4
as §3, with “well-growing leukemia” for “well-growing”, “cells” for “cells as above”

U87 MG cell line = experiment: solid tumor cell growth inhibition, MTT; type: cell-based; conditions: Homo sapiens, U-87 MG, 72 h; for inhibition at 16 µg/mL: 16 μg/mL compound, read-out: IR (cell proliferation inhibition rate)
Procedure: as §1, §2

Hep-2 cell line = experiment: solid tumor cell growth inhibition, MTT; type: cell-based; conditions: Homo sapiens; for IC50: HEp-2, 72 h; for inhibition at 16 µg/mL: Hep-2, 16 μg/mL compound, 72 h, read-out: IR (cell proliferation inhibition rate)
Procedure: as §1, §2

A549 cell line = experiment: solid tumor cell growth inhibition, MTT; type: cell-based; conditions: Homo sapiens; for IC50: A549, 72 h; for inhibition at 16 µg/mL: A549, 16 μg/mL compound, 72 h, read-out: IR (cell proliferation inhibition rate)
Procedure: as §1, §2

SK-OV-3 cell line = experiment: solid tumor cell growth inhibition, MTT; type: cell-based; conditions: Homo sapiens; for IC50: SK-OV-3, 72 h; for inhibition at 16 µg/mL: SK-OV-3, 16 μg/mL compound, 72 h, read-out: IR (cell proliferation inhibition rate)
Procedure: as §1, §2

CaES-17 cell line = experiment: solid tumor cell growth inhibition, MTT; type: cell-based; conditions: Homo sapiens, CaEs17; for inhibition at 16 µg/mL: CaES-17, 16 μg/mL compound, 72 h, read-out: IR (cell proliferation inhibition rate); for IC50: CaES-17, 72 h
Procedure: as §1, §2

MG-63 cell line = experiment: solid tumor cell growth inhibition, MTT; type: cell-based; conditions: Homo sapiens; for IC50: MG-63, 72 h; for inhibition at 16 µg/mL: MG-63, 16 μg/mL compound, 72 h, read-out: IR (cell proliferation inhibition rate)
Procedure: as §1, §2

Hela cell line = experiment: solid tumor cell growth inhibition, MTT; type: cell-based; conditions: Homo sapiens, 72 h; for IC50: HeLa; for inhibition at 16 µg/mL: Hela, 16 μg/mL compound, read-out: IR (cell proliferation inhibition rate)
Procedure: as §1, §2

PANC-1 cell line = experiment: solid tumor cell growth inhibition, MTT; type: cell-based; conditions: Homo sapiens; for IC50: PANC-1, 72 h; for inhibition at 16 µg/mL: PANC-1, 16 μg/mL compound, 72 h, read-out: IR (cell proliferation inhibition rate)
Procedure: as §1, §2

Becap37 cell line = experiment: solid tumor cell growth inhibition, MTT; type: cell-based; conditions: Homo sapiens; for inhibition at 16 µg/mL: Becap37, 16 μg/mL compound, 72 h, read-out: IR (cell proliferation inhibition rate); for IC50: Becap37, 72 h
Procedure: as §1, §2

MGC 803 cell line = experiment: solid tumor cell growth inhibition, MTT; type: cell-based; conditions: Homo sapiens; for inhibition at 16 µg/mL: MGC 803, 16 μg/mL compound, 72 h, read-out: IR (cell proliferation inhibition rate); for IC50: MGC 803, 72 h
Procedure: as §1, §2

RKO cell line = experiment: solid tumor cell growth inhibition, MTT; type: cell-based; conditions: Homo sapiens, 72 h; for inhibition at 16 µg/mL: 16 μg/mL compound, read-out: IR (cell proliferation inhibition rate)
Procedure: as §1, §2

PC-3 cell line = experiment: solid tumor cell growth inhibition, MTT; type: cell-based; conditions: Homo sapiens; for IC50: PC-3, 72 h; for inhibition at 16 µg/mL: PC-3, 16 μg/mL compound, 72 h, read-out: IR (cell proliferation inhibition rate)
Procedure: as §1, §2

CNE cell line = experiment: solid tumor cell growth inhibition, MTT; type: cell-based; conditions: Homo sapiens, 72 h; for inhibition at 16 µg/mL: 16 μg/mL compound, read-out: IR (cell proliferation inhibition rate)
Procedure: as §1, §2

SMILES: COC(=O)[C@]12CCC(C)(C)CC1C1=CCC3[C@@]4(C)CC(C(=O)NC5CC5)C(=O)C(C)(C)C4CC[C@@]3(C)[C@]1(C)CC2 (some centres unmarked) [BS-OA-034]
- inhibition at 16 µg/mL (Hep G2 cell line): 8.9%
- IC50 (Hep G2 cell line): > 16 µg/mL
- inhibition at 16 µg/mL (RPMI8226 cell line): 15.5%
- IC50 (RPMI8226 cell line): > 16 µg/mL
- IC50 (K562/adr cell line): > 16 µg/mL
- inhibition at 16 µg/mL (K562/adr cell line): 25.3%
- inhibition at 16 µg/mL (Kasumi-1 cell line): 22.6%
- IC50 (Kasumi-1 cell line): > 16 µg/mL
- inhibition at 16 µg/mL (NB4 cell line): 22.3%
- IC50 (NB4 cell line): > 16 µg/mL
- IC50 (H9 cell line): > 16 µg/mL
- inhibition at 16 µg/mL (H9 cell line): 22.1%
- inhibition at 16 µg/mL (Jurkat cell line): -19.6%
- IC50 (Jurkat cell line): > 16 µg/mL
- inhibition at 16 µg/mL (U87 MG cell line): 18.2%
- IC50 (U87 MG cell line): > 16 µg/mL
- IC50 (Hep-2 cell line): > 16 µg/mL
- inhibition at 16 µg/mL (Hep-2 cell line): 5.4%
- IC50 (A549 cell line): > 16 µg/mL
- inhibition at 16 µg/mL (A549 cell line): 5.3%
- IC50 (SK-OV-3 cell line): > 16 µg/mL
- inhibition at 16 µg/mL (SK-OV-3 cell line): 21.3%
- inhibition at 16 µg/mL (CaES-17 cell line): -6.7%
- IC50 (CaES-17 cell line): > 16 µg/mL
- IC50 (MG-63 cell line): > 16 µg/mL
- inhibition at 16 µg/mL (MG-63 cell line): -5.4%
- IC50 (Hela cell line): > 16 µg/mL
- inhibition at 16 µg/mL (Hela cell line): 0.6%
- IC50 (PANC-1 cell line): > 16 µg/mL
- inhibition at 16 µg/mL (PANC-1 cell line): -9.9%
- inhibition at 16 µg/mL (Becap37 cell line): -6.7%
- IC50 (Becap37 cell line): > 16 µg/mL
- inhibition at 16 µg/mL (MGC 803 cell line): -3.2%
- IC50 (MGC 803 cell line): > 16 µg/mL
- inhibition at 16 µg/mL (RKO cell line): -41%
- IC50 (RKO cell line): > 16 µg/mL
- IC50 (PC-3 cell line): > 16 µg/mL
- inhibition at 16 µg/mL (PC-3 cell line): 19%
- inhibition at 16 µg/mL (CNE cell line): 16.7%
- IC50 (CNE cell line): > 16 µg/mL

SMILES: CCN(CC)CCCNC(=O)C1C[C@]2(C)[C@H]3CC=C4[C@@H]5CC(C)(C)CC[C@]5(C(=O)OC)CC[C@@]4(C)[C@]3(C)CC[C@H]2C(C)(C)C1=O (some centres unmarked) [BS-OA-035]
- inhibition at 16 µg/mL (Hep G2 cell line): > 96%
- IC50 (Hep G2 cell line): 1.94 µg/mL (≈ 3.1 µM)
- inhibition at 16 µg/mL (RPMI8226 cell line): 99.1%
- IC50 (RPMI8226 cell line): 0.61 µg/mL (≈ 0.976 µM)
- IC50 (K562/adr cell line): 0.68 µg/mL (≈ 1.09 µM)
- inhibition at 16 µg/mL (K562/adr cell line): 99.6%
- inhibition at 16 µg/mL (Kasumi-1 cell line): 97%
- IC50 (Kasumi-1 cell line): 3.95 µg/mL (≈ 6.32 µM)
- inhibition at 16 µg/mL (NB4 cell line): 99.8%
- IC50 (NB4 cell line): 2.96 µg/mL (≈ 4.74 µM)
- IC50 (H9 cell line): 2.67 µg/mL (≈ 4.27 µM)
- inhibition at 16 µg/mL (H9 cell line): 97.5%
- inhibition at 16 µg/mL (Jurkat cell line): 96.6%
- IC50 (Jurkat cell line): 1.67 µg/mL (≈ 2.67 µM)
- inhibition at 16 µg/mL (U87 MG cell line): 97.1%
- IC50 (U87 MG cell line): 2.7 µg/mL (≈ 4.32 µM)
- IC50 (Hep-2 cell line): 5.34 µg/mL (≈ 8.54 µM)
- inhibition at 16 µg/mL (Hep-2 cell line): 98.5%
- IC50 (A549 cell line): 2.02 µg/mL (≈ 3.23 µM)
- inhibition at 16 µg/mL (A549 cell line): 97.3%
- IC50 (SK-OV-3 cell line): 3.72 µg/mL (≈ 5.95 µM)
- inhibition at 16 µg/mL (SK-OV-3 cell line): 98.6%
- inhibition at 16 µg/mL (CaES-17 cell line): 98%
- IC50 (CaES-17 cell line): 2.74 µg/mL (≈ 4.38 µM)
- IC50 (MG-63 cell line): 1.62 µg/mL (≈ 2.59 µM)
- inhibition at 16 µg/mL (MG-63 cell line): 100%
- IC50 (Hela cell line): 3.11 µg/mL (≈ 4.98 µM)
- inhibition at 16 µg/mL (Hela cell line): 98.1%
- IC50 (PANC-1 cell line): 4.89 µg/mL (≈ 7.82 µM)
- inhibition at 16 µg/mL (PANC-1 cell line): 99.8%
- inhibition at 16 µg/mL (Becap37 cell line): 98.6%
- IC50 (Becap37 cell line): 5.2 µg/mL (≈ 8.32 µM)
- inhibition at 16 µg/mL (MGC 803 cell line): 98.9%
- IC50 (MGC 803 cell line): 2.56 µg/mL (≈ 4.1 µM)
- inhibition at 16 µg/mL (RKO cell line): 97.2%
- IC50 (RKO cell line): 2.39 µg/mL (≈ 3.82 µM)
- IC50 (PC-3 cell line): 5 µg/mL (≈ 8 µM)
- inhibition at 16 µg/mL (PC-3 cell line): 98.5%
- inhibition at 16 µg/mL (CNE cell line): 99%
- IC50 (CNE cell line): 3.64 µg/mL (≈ 5.82 µM)
